What was measured:
Human Jurkat-E6-1 cells = assay: Detection of IL-2 production by Jurkat cells using ELISA; type: cell-based; details: anti-CD3/anti-CD28 stimulation 24 hours, read-out: Percentage of the amount of IL-2 secreted by compound treated vs DMSO-treated cells; for activity at 3 µM: tested compound 3.0 μM; for activity at 0.33 µM: tested compound 0.33 μM
Method: (§1) Tested compounds: compounds prepared in the Examples of this invention.
Human Jurkat-E6-1 cells were incubated with various concentrations of tested compounds for 30 minutes in a humidified incubator at 37° C. and 5% CO2. Cells were transferred to cell culture plates pre-coated with anti-human CD3 antibody, then soluble anti-human CD28 antibody was added, and cells were stimulated for 24 hours at 37° C. and 5% CO2 in a humidified incubator. The cell culture medium was collected after centrifugation, and was then transferred to a 96-well transparent microtiter plate (Thermo) pre-coated with anti-human IL-2 antibody, incubated at room temperature for 2 hours with gently shaking, washed with washing buffer for 4 times, and then followed the ELISA MAX Deluxe Set Human IL-2 (BioLegend) kit procedures, used a microplate reader (Molecular Device, i3X) to read the GD value at 450 nm. The best standard curve was selected by the microplate reader application software, and the corresponding concentration was calculated according to the GD value of the standard. Results are expressed as a percentage (%) of the amount of IL-2 secreted by compound-treated vs DMSO-treated cells.

HPK1 = HPK1 (Homo sapiens, UniProt Q92918); assay: HPK1 kinase activity inhibition test (ADP-Glo, luminescence); type: biochemical; details: 2 μM ATP, 5 nM HPK1, read-out: IC50, inhibitory effects on HPK1 kinase activity
Method: The kinase activity of HPK1 is manifested as activity of autophosphorylation and phosphorylation of downstream substrates. In the process of autophosphorylation, additional substrates are not required, and ATP is consumed to generate ADP. The amount of the product is measured by ADP-Glo reagent and luminescence method to reflect kinase activity.
as §1
Preparation of compound stock solution: dissolve the test compound in 100% DMSO to make a 10 mM stock solution;
Preparation of 4×Kinase Reaction Buffer:
Preparation of 2×HPK1 Kinase Solution:
Preparation of 4×ATP Mixture:
Dilute the stock solution of the test compound by 5 times with 100% DMSO, make a 4-fold equal dilution in a 96-well dilution plate, add 1 μL of the compound to 49 μL of kinase reaction buffer, and shake on a microplate shaker for 20 minutes. Transfer 2 μL of 2×HPK1 kinase solution to 384 reaction plate, add 1 μL of the test compound to the 384 reaction plate (Greiner, Cat #784075), centrifuge for 1 minute (1000 rpm/min), incubate at 25° C. for 10 minutes. Transfer 1 μL of the 4×ATP mixture to a 384 reaction plate, centrifuge for 1 minute (1000 rpm/min), and incubate at 25° C. for 60 minutes. In the reaction system, the final concentration of DMSO is 0.5%. Transfer 4 μL of ADP-Glo to a 384 reaction plate, centrifuge for 1 minute (1000 rpm/min), and incubate at 25° C. for 40 minutes. Transfer 8 μL detection solution to a 384 reaction plate, centrifuge for 1 minute (1000 rpm/min), and incubate at 25° C. for 40 minutes. The […] is read using a Biotek multi-function plate reader, and the IC50 (half inhibitory concentration) of the compound is obtained using a four-coefficient nonlinear fitting formula.

Sequence of HPK1 (Q92918 whole entry): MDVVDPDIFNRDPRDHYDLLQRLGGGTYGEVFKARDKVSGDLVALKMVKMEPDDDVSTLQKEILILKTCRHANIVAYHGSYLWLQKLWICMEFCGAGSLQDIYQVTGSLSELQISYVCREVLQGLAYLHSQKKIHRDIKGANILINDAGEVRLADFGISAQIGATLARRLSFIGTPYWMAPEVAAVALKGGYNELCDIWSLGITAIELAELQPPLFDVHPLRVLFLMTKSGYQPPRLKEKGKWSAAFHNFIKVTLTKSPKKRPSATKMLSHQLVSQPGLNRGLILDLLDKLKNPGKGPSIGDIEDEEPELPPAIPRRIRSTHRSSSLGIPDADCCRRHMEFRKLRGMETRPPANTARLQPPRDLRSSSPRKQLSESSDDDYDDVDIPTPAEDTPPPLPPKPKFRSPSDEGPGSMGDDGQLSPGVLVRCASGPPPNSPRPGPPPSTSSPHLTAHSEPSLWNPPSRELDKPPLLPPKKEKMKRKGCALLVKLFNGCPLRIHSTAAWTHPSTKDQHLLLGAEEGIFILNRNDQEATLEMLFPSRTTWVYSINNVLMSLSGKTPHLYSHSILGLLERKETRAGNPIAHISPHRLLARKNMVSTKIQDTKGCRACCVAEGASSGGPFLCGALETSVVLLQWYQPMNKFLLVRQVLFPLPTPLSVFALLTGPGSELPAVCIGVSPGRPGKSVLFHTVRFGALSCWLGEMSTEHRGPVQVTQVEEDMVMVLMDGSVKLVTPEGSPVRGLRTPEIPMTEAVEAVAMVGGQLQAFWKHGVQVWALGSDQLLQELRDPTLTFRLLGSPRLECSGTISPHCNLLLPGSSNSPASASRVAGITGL

| Structure (SMILES) | activity at 3 µM (Human Jurkat-E6-1 cells) [%] | IC50 (HPK1) [nM] | activity at 0.33 µM (Human Jurkat-E6-1 cells) [%] | activity at 1 µM (Human Jurkat-E6-1 cells; tested compound 1.0 μM) [%] |
| --- | --- | --- | --- | --- |
| Fc1cccc2c1-c1cc3c(n[nH]c3cn1)-c1cnc(N3CCOCC3)c(c1)OCCCO2 [Compound 4, 16-fluoro-5-(morpholin-4-yl)-7,11-dioxa-4,19,22,23-tetraazapentacyclo[16.5.2.1^2,6.0^12,17.0^21,24]hexacosa-1(23),2(26),3,5,12,14,16,18,20,24-decaene] | 801 | 5 to 50 | – | – |
| CN1CCN(c2ccc3cc2OCCCCOc2cccc(F)c2-c2cc4c-3n[nH]c4cn2)CC1 [Compound 7, 17-fluoro-5-(4-methylpiperazin-1-yl)-7,12-dioxa-20,23,24-triazapentacyclo[17.5.2.1^2,6.0^13,18.0^22,25]heptacosa-1(24),2(27),3,5,13,15,17,19,21,25-decaene] | 404 | 5 to 50 | – | – |
| CN1CCN(c2ccc3cc2OCCCOCc2cccc(F)c2-c2cc4c-3n[nH]c4cn2)CC1(C)C [Compound 17, 17-fluoro-5-(3,3,4-trimethylpiperazin-1-yl)-7,11-dioxa-20,23,24-triazapentacyclo[17.5.2.1^2,6.0^13,18.0^22,25]heptacosa-1(24),2,4,6(27),13(18),14,16,19,21,25-decaene] | – | ≤ 5 | 439 | – |
| CN1C2CCC1CN(c1ccc3cc1OCCCOCc1cccc(F)c1-c1cc4c-3n[nH]c4cn1)C2 [Compound 18, 17-fluoro-5-{8-methyl-3,8-diazabicyclo[3.2.1]octan-3-yl}-7,11-dioxa-20,23,24-triazapentacyclo[17.5.2.1^2,6.0^13,18.0^22,25]heptacosa-1(24),2,4,6(27),13(18),14,16,19,21,25-decaene] | – | ≤ 5 | 486 | – |
| CN1CCN(c2ccc3cc2OCCCCOCc2cccc(F)c2-c2cc4c-3n[nH]c4cn2)CC1 [Compound 100, 18-fluoro-5-(4-methylpiperazin-1-yl)-7,12-dioxa-21,24,25-triazapentacyclo[18.5.2.1^2,6.0^14,19.0^23,26]octacosa-1(25),2(28),3,5,14(19),15,17,20,22,26-decaene] | – | 5 to 50 | – | 235 |
| CN1CCN(c2ccc3cc2OCCCCCc2cccc(F)c2-c2cc4c-3n[nH]c4cn2)CC1 [Compound 101, 17-fluoro-5-(4-methylpiperazin-1-yl)-7-oxa-20,23,24-triazapentacyclo[17.5.2.1^2,6.0^13,18.0^22,25]heptacosa-1(24),2(27),3,5,13(18),14,16,19,21,25-decaene] | – | ≤ 5 | 257 | – |
| Fc1cccc2c1-c1cc3c(n[nH]c3cn1)-c1ccc(N3CCC(N4CCOCC4)CC3)c(c1)OCCCO2 [Compound 104, 16-fluoro-5-[4-(morpholin-4-yl)piperidin-1-yl]-7,11-dioxa-19,22,23-triazapentacyclo[16.5.2.1^2,6.0^12,17.0^21,24]hexacosa-1(23),2,4,6(26),12(17),13,15,18,20,24-decaene] | – | ≤ 5 | 273 | – |
| Fc1cccc2c1-c1cc3c(n[nH]c3cn1)-c1ccc(N3CCC(N4CCOCC4)CC3)c(c1)OCCCOC2 [Compound 105, 17-fluoro-5-[4-(morpholin-4-yl)piperidin-1-yl]-7,11-dioxa-20,23,24-triazapentacyclo[17.5.2.1^2,6.0^13,18.0^22,25]heptacosa-1(24),2,4,6(27),13(18),14,16,19,21,25-decaene] | – | ≤ 5 | 313 | – |
| CN1CCN(c2ccc3cc2OCCCOc2cccc(F)c2-c2cc4c-3n[nH]c4cn2)C[C@@H]1CO [Compound 130, [(2R)-4-{16-fluoro-7,11-dioxa-19,22,23-triazapentacyclo[16.5.2.1^2,6.0^12,17.0^21,24]hexacosa-1(23),2,4,6(26),12(17),13,15,18,20,24-decaen-5-yl}-1-methylpiperazin-2-yl]methanol] | – | ≤ 5 | – | – |
| CN1CCN(c2ccc3cc2OCCCOc2cccc(F)c2-c2cc4c-3n[nH]c4cn2)C[C@H]1CO [Compound 131, [(2S)-4-{16-fluoro-7,11-dioxa-19,22,23-triazapentacyclo[16.5.2.1^2,6.0^12,17.0^21,24]hexacosa-1(23),2,4,6(26),12(17),13,15,18,20,24-decaen-5-yl}-1-methylpiperazin-2-yl]methanol] | – | ≤ 5 | – | – |
| O=C1OC[C@H]2CN(c3ccc4cc3OCCCOc3cccc(F)c3-c3cc5c-4n[nH]c5cn3)CCN12 [Compound 134, (8aR)-7-{16-fluoro-7,11-dioxa-19,22,23-triazapentacyclo[16.5.2.1^2,6.0^12,17.0^21,24]hexacosa-1(23),2,4,6(26),12(17),13,15,18,20,24-decaen-5-yl}-hexahydro-1H-[1,3]oxazolo[3,4-a]pyrazin-3-one] | – | ≤ 5 | – | – |
| O=C1OC[C@@H]2CN(c3ccc4cc3OCCCOc3cccc(F)c3-c3cc5c-4n[nH]c5cn3)CCN12 [Compound 135, (8aS)-7-{16-fluoro-7,11-dioxa-19,22,23-triazapentacyclo[16.5.2.1^2,6.0^12,17.0^21,24]hexacosa-1(23),2,4,6(26),12(17),13,15,18,20,24-decaen-5-yl}-hexahydro-1H-[1,3]oxazolo[3,4-a]pyrazin-3-one] | – | ≤ 5 | – | – |
| CN1C[C@H]2CN(c3ccc4cc3OCCCOc3cccc(F)c3-c3cc5c-4n[nH]c5cn3)CCN2CC1=O [Compound 137, (9aR)-8-{16-fluoro-7,11-dioxa-19,22,23-triazapentacyclo[16.5.2.1^2,6.0^12,17.0^21,24]hexacosa-1(23),2,4,6(26),12(17),13,15,18,20,24-decaen-5-yl}-2-methyl-octahydro-1H-[1,4]diazino[1,2-a]pyrazin-3-one] | – | ≤ 5 | – | – |
| CN1C[C@@H]2CN(c3ccc4cc3OCCCOc3cccc(F)c3-c3cc5c-4n[nH]c5cn3)CCN2CC1=O [Compound 138, (9aS)-8-{16-fluoro-7,11-dioxa-19,22,23-triazapentacyclo[16.5.2.1^2,6.0^12,17.0^21,24]hexacosa-1(23),2,4,6(26),12(17),13,15,18,20,24-decaen-5-yl}-2-methyl-octahydro-1H-[1,4]diazino[1,2-a]pyrazin-3-one] | – | ≤ 5 | – | – |
| CN1C[C@@H]2C[C@H]1CN2c1ccc2cc1OCCCOc1cccc(F)c1-c1cc3c-2n[nH]c3cn1 [Compound 140, 16-fluoro-5-[(1S,4S)-5-methyl-2,5-diazabicyclo[2.2.1]heptan-2-yl]-7,11-dioxa-19,22,23-triazapentacyclo[16.5.2.1^2,6.0^12,17.0^21,24]hexacosa-1(23),2,4,6(26),12(17),13,15,18,20,24-decaene] | – | ≤ 5 | – | – |
| CN1C[C@H]2C[C@@H]1CN2c1ccc2cc1OCCCOc1cccc(F)c1-c1cc3c-2n[nH]c3cn1 [Compound 141, 16-fluoro-5-[(1R,4R)-5-methyl-2,5-diazabicyclo[2.2.1]heptan-2-yl]-7,11-dioxa-19,22,23-triazapentacyclo[16.5.2.1^2,6.0^12,17.0^21,24]hexacosa-1(23),2,4,6(26),12(17),13,15,18,20,24-decaene] | – | ≤ 5 | – | – |
| Fc1cccc2c1-c1cc3c(n[nH]c3cn1)-c1ccc(N3C[C@@H]4C[C@H]3CN4C3COC3)c(c1)OCCCO2 [Compound 142, 16-fluoro-5-[(1S,4S)-5-(oxetan-3-yl)-2,5-diazabicyclo[2.2.1]heptan-2-yl]-7,11-dioxa-19,22,23-triazapentacyclo[16.5.2.1^2,6.0^12,17.0^21,24]hexacosa-1(23),2,4,6(26),12(17),13,15,18,20,24-decaene] | – | 5 to 50 | – | – |
| CN1CCN(c2ccc3cc2OCCCOc2cccc(F)c2-c2cc4c-3n[nH]c4cn2)CC1(C)C [Compound 143, 16-fluoro-5-(3,3,4-trimethylpiperazin-1-yl)-7,11-dioxa-19,22,23-triazapentacyclo[16.5.2.1^2,6.0^12,17.0^21,24]hexacosa-1(23),2,4,6(26),12(17),13,15,18,20,24-decaene] | – | ≤ 5 | – | – |
